Results on 74 compounds are retold here after PubChem BioAssay AID449764 (Southern Research Specialized Biocontainment Screening …, 2010).

This assay has as its system Mycobacterium tuberculosis H37Rv growth inhibition, no glycerol. Nature of the assay: Confirmatory growth inhibition assay, Mycobacterium tuberculosis H37Rv, absence of glycerol (AID 449764).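 For all read-outs here: growth read after 7 days of incubation.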 As to conditions: for IC90: measured here: IC90 growth inhibition.

Molecules are shown by their SMILES.

The term IC50 denotes the concentration needed to halve the response being measured. The IC90 is the point of the concentration-response curve where the effect stands at 90%. In the case of `O=C1Nc2cc(C(=O)NCCCN3CCOCC3)ccc2S/C1=C/c1cccc(Cl)c1`, the IC50 is 32.9 µM and the IC90 was determined as 44.9 µM.
The corresponding values for `O=C(Nc1nc2ccc(SC(F)F)cc2s1)c1ccc(NS(=O)(=O)c2ccc(F)c(F)c2)cc1` are 11.9 µM and 18.9 µM.
For `CCCCCCCCn1c2c(c(=N)c3c1CCC3)CCCC2`, the IC50 was 22.6 µM and the IC90 was found to be 25.8 µM.
The corresponding values for `CN(C)c1ccc(/C=C2\N=C(C(C)(C)C)OC2=O)cc1` are 86 µM and greater than 100 µM.
The corresponding values for `CCOc1cc(/C=C\[N+](=O)[O-])ccc1OCC(=O)Nc1ccccc1C` are 29.8 µM and 59 µM.
The corresponding values for `Cc1ccc(C)c(NC(CC(=O)c2ccccc2)C(=O)OCC(=O)c2cccs2)c1` (configuration not stated) are 11.1 µM and 11.7 µM.
With `Cn1cnc(Sc2ncnc3nc[nH]c23)c1[N+](=O)[O-]`, the IC50 is 12.1 µM and the IC90 came out at 21.1 µM.
The corresponding values for `Nc1n[nH]c(C2CC2)c1N=Nc1ccc(Cl)cc1` are 32.4 µM and 54.3 µM.
The corresponding values for `CCN(CC)CCCNc1nc2cc(OC)c(OC)cc2c2nc(-c3ccccc3)nn12` are 11.1 µM and 12.8 µM.
The corresponding values for `Cc1nc(-c2nc(-c3c(C(=O)NNC(=O)c4ccc(Cl)cc4)noc3C)cs2)cs1` are 24.7 µM and greater than 100 µM.
In the case of `CCOCCN1CCN(c2c(CC)c(C)nc3cc(-c4cc(OC)cc(OC)c4)nn23)CC1`, the IC50 was 24.5 µM and the IC90 worked out at 38.2 µM.
The corresponding values for `CCc1nc(N2CCN(C(C)=O)CC2)c2c3c(sc2n1)CC(C(C)(C)C)CC3` (configuration not stated) are 17.9 µM and 21.5 µM.
The corresponding values for `CCCn1c(N2CCN(Cc3ccc(Cl)cc3)CC2)nc2ccccc21` are 25.2 µM and 38 µM.
The corresponding values for `O=C(CSC1=NC(=O)C(c2ccccc2)C(=O)N1)Nc1ccccc1Cl` (configuration not stated) are 7.27 µM and 24.2 µM.
`CC(C)n1cnc2c(NCc3ccccc3)cc(Cc3ccc(F)cc3)cc21`: the IC50 was 34.4 µM and the IC90 is 49.3 µM.
The corresponding values for `Cn1c(/C=N/Nc2nc3ccccc3[nH]2)nc2ccccc21` are 61.8 µM and 79.8 µM.
In the case of `O=C1C2C(c3ccccc3)(C(=O)N1c1ccc(Cl)cc1)C2(c1ccccc1)c1ccccc1` (configuration not stated), the IC50 was 11.6 µM and the IC90 was 13.6 µM.
The corresponding values for `Cc1cc(CC(C)C)n(-c2nc3ccccc3c(=O)n2OCC(N)=O)n1` are 11.2 µM and 20.6 µM.
The corresponding values for `Cc1cc(C)c(C(N)=O)c(SCC(=O)c2ccc(Cl)cc2)n1` are 75.3 µM and greater than 100 µM.
The corresponding values for `CC(C)C(=O)N1CCC2(CC1)Oc1ccc(Cl)cc1C(=O)C21CC(c2ccccc2)=NO1` (configuration not stated) are 59.4 µM and greater than 100 µM.
Consider `CCOC(=O)CSc1cc(=O)n(C)c2cc(Cl)ccc12`, for which the IC50 is less than 0.2 µM and the IC90 was found to be 18.3 µM.
The corresponding values for `CCOC(=O)c1sc2ncnc(NCC(c3cccs3)N(C)C)c2c1C` (configuration not stated) are 42 µM and 57 µM.
The corresponding values for `O=C1C=C(c2ccc3[nH]ccc3c2)C[C@@H](c2ccc(Cl)cc2)C1` are 84.5 µM and greater than 100 µM.
In the case of `CCOC(=O)C1CCN(c2nc3cc(OC)ccc3cc2C#N)CC1`, the IC50 is 83.5 µM and the IC90 was greater than 100 µM.
`CCCCCC1CC(CC(=O)NC(=S)Nc2ccc([N+](=O)[O-])cc2)C(=O)O1` (configuration not stated) displayed an IC90 greater than 100 µM.
Take `NNC(=S)NCc1ccc2c(c1)OCO2`: the IC50 is 99.3 µM and the IC90 is greater than 100 µM.
The corresponding values for `C/C(=N\NC(=S)Nc1cccc(C)c1)c1cccc(N)c1` are 21.6 µM and 23.7 µM.
The corresponding values for `O=C(CSc1nnc(-c2cccs2)o1)NCC1CN(Cc2ccccc2)CCO1` (configuration not stated) are 20.7 µM and 25.5 µM.
As to `CC(C)Cn1c(N2CCN(C(=O)/C=C/c3ccccc3)CC2)nc2ccccc21`, the IC50 was 34 µM and the IC90 came out at 47.4 µM.
The corresponding values for `Cc1ccc(-c2csc3nc4c5ccccc5c(NCCCN5CCOCC5)nn4c(=O)c23)cc1` are 29 µM and 39.8 µM.
`O=C(OCn1ncc(Br)c(Br)c1=O)c1ccc(F)cc1`: the IC50 was 2.9 µM and the IC90 was determined as 4.77 µM.
The corresponding values for `CCOC(=O)c1ccccc1NC(=O)COc1coc(CN2CCc3ccccc32)cc1=O` are 27.1 µM and 47.8 µM.
The corresponding values for `CC1=NN(C(N)=S)C(=O)C1N=Nc1ccc(C)c(Br)c1` (configuration not stated) are 37.2 µM and greater than 100 µM.
The corresponding values for `Cc1nc(NC(=O)CC(C)C)sc1-c1csc(Nc2ccc(Cl)cc2Cl)n1` are 40.2 µM and 83.7 µM.
As for `COc1ccc(-n2nnnc2S(=O)(=O)CC(=O)N2CCCCC2)cc1`, the IC50 is 12.5 µM and the IC90 was found to be 20.9 µM.
The corresponding values for `CC(C)(C)c1ccc(Cn2c(=N)n(CC(O)c3ccco3)c3ccccc32)cc1` (configuration not stated) are 23.3 µM and 25.6 µM.
In turn, `CCCCNc1nc(N(C)c2ccccc2)nc(-n2ccnc2)n1` gave an IC90 greater than 100 µM.
Consider `O=C(NC(=S)Nc1cccc2cccnc12)c1ccccc1`, for which the IC50 was 56.9 µM and the IC90 is greater than 100 µM.
The corresponding values for `Cn1nc(C(C)(C)C)cc1NC(=O)Nc1cc(Cl)cc(Cl)c1` are 18.2 µM and 25.6 µM.
On to `Cc1noc(C)c1COc1ccc(C(=O)OCC(=O)NC23CC4CC(CC(C4)C2)C3)cc1`, for which the IC50 was 23.9 µM and the IC90 turned out to be 35.5 µM.
On to `CCOc1cc(/C=C2\COc3ccccc3C2=O)cc(Br)c1OCC(=O)N(C)C`, for which the IC50 is 6.73 µM and the IC90 was determined as 11.5 µM.
In the case of `CC(C)(C)c1ccc(C(=O)NNc2cc(N3CCCCC3)nc(N3CCCCC3)n2)cc1`, the IC50 was 62.7 µM and the IC90 is 74.4 µM.
The compound `N#Cc1cccc2c1-c1ccccc1/C2=N/NC(N)=O` returned an IC90 greater than 100 µM.
Regarding `CSc1ccc(C(=O)C2CCCN(C(=O)c3ccc4c(c3)no[n+]4[O-])C2)cc1` (configuration not stated), the IC50 is 1.65 µM and the IC90 came to 2.53 µM.
The corresponding values for `O=C(Nc1ccc([N+](=O)[O-])cc1)Nc1ccc(OC(F)F)c(Cl)c1` are 2.5 µM and 3.63 µM.
For the compound `c1ccc(-c2nccc(-c3ccc(-n4cnc5ccccc54)cc3)n2)nc1`, the IC50 is 19 µM and the IC90 came to 23.7 µM.
The corresponding values for `O=c1[nH]c(CN2CC=C(c3ccccc3)CC2)nc2cc(C(F)(F)F)ccc12` are 93.7 µM and 98.9 µM.
The corresponding values for `Fc1ccc(C[n+]2c(-c3ccccc3)cc(-c3ccccc3)cc2-c2ccccc2)cc1` are 32.8 µM and 43.9 µM.
With `Nc1cc([N+](=O)[O-])cc2oc(-c3ccccc3)cc12`, the IC90 is greater than 100 µM.
For the compound `COc1ccc(OC)c(Nc2nc(-c3sc(C)nc3C)cs2)c1`, the IC50 was 70.1 µM and the IC90 is greater than 100 µM.
`Cc1ccc(/C=C/C(=O)N2CC(C)CC(C)C2)o1` (configuration not stated): the IC50 was 36.3 µM and the IC90 stood at 49.4 µM.
The corresponding values for `Cc1cc2c(cc1C)/C(=N/NC(=O)c1ccccn1)CCC2` are 24.2 µM and 53.6 µM.
The corresponding values for `Cc1cc([N+](=O)[O-])c2ccccc2[n+]1[O-]` are 8.67 µM and 13.8 µM.
On to `COc1ccc([C@H]2CC(=O)C=C(c3ccc4c5c(cccc35)CC4)C2)cc1`, for which the IC90 was greater than 100 µM.
For `S=C(NCc1ccc(Cl)cc1)NC12CC3CC(CC(C3)C1)C2`, the IC50 is 3.83 µM and the IC90 was found to be 28.1 µM.
The corresponding values for `Cc1cc(C)n2nc(N)c(N=Nc3ccccc3)c2n1` are 2.59 µM and 3.46 µM.
The corresponding values for `CCCCCCC[N+](CC)(CC)CCCCc1ccc(Cl)cc1` are 37.1 µM and 49.8 µM.
`CC(C)(C)OC(=O)NNC(=S)NC1CCCCC1` registered an IC90 greater than 100 µM.
On to `C/C(=N\NC(=S)NCC(C)(C)C)c1cc(F)cc(F)c1O`, for which the IC50 was 9.33 µM and the IC90 worked out at 37.1 µM.
The corresponding values for `CS(=O)(=O)c1nc(-c2ccccc2)cc(C(F)(F)F)n1` are 18 µM and 27.6 µM.
Regarding `Cc1ccc(OC(=O)CCN2C(=O)c3ccccc3C2=O)cc1C`, the IC50 is 85.1 µM and the IC90 was greater than 100 µM.
The corresponding values for `CN(C)c1ccc(CNc2nc(-c3ccccc3)nn2S(C)(=O)=O)cc1` are 14.2 µM and 26.5 µM.
Take `CC(C(c1ccc2c(c1)OCO2)c1c(N)n(C)c(=O)n(C)c1=O)[N+](=O)[O-]` (configuration not stated): the IC50 was 8.17 µM and the IC90 is 11.8 µM.
In the case of `Fc1ccc2[nH]c3c(NCc4ccccc4)ncnc3c2c1`, the IC50 was 23.8 µM and the IC90 turned out to be 27 µM.
Turning to `COc1ccc(-c2nc(NC(=O)Cn3ccc(C(F)(F)F)n3)sc2C)cc1`, the IC50 is 44.6 µM and the IC90 was determined as 50.4 µM.
The corresponding values for `CCN(CC)CCOC(=O)c1ccc(N/C=C(/C#N)c2nc(-c3ccc4c(c3)OCO4)cs2)cc1` are 62.2 µM and greater than 100 µM.
As to `OC(CN1CCCCC1)Cn1c2ccc(Cl)cc2c2cc(Cl)ccc21` (configuration not stated), the IC50 was 11.2 µM and the IC90 stood at 12.5 µM.
The corresponding values for `CN(C(=O)c1cccc(Nc2ccc(-c3ccc4c(c3)OCCO4)nn2)c1)C1CCCCC1` are 69.2 µM and greater than 100 µM.
The corresponding values for `N#Cc1c([N+](=O)[O-])cc([N+](=O)[O-])cc1S(=O)(=O)Cc1ccccc1` are 22.6 µM and 25.9 µM.
The corresponding values for `CCCCN(C)S(=O)(=O)c1ccc(C(=O)Nc2nnc(-c3ccco3)o2)cc1` are 17.8 µM and 32.7 µM.
For `CCc1ccc(/C=C2/C(=O)N(C)C(=S)N2CC(=O)OC)s1`, the IC50 is 4.81 µM and the IC90 was determined as 6.97 µM.
The corresponding values for `CCOc1cccc(/C=C/c2ccc3cccc(O)c3n2)c1O` are 4.28 µM and greater than 100 µM.
Consider `COc1ccc2[nH]c3c(C)c4ccncc4c(C)c3c2c1`, for which the IC50 was 1.33 µM and the IC90 was determined as 1.68 µM.
Consider `Cc1ccn2c(-c3csc(NCc4ccccc4)n3)c(C)nc2c1`, for which the IC50 was 45.5 µM and the IC90 was found to be 51.5 µM.
